Key:
Assay in all cases: relative viability (nuclei count vs DMSO), 5 days (fraction); higher = more cells survive
Calu-6 = test system: Calu-6
Procedure, shortened: (§1)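 Dosing by pin tool came one day after lung cancer cell lines were seeded in 1536-well plates, using either one drug or a fixed anchor-drug dose plus five library-drug doses (not always all listed) in √10 steps. After 5 days, nuclei were counted on 4× images. Relative viability is treated-well nuclei count divided by vehicle-well nuclei count, and values are medians of duplicate plates.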

UMC-11 = test system: UMC-11
Procedure, shortened: as §1

EBC-1 = test system: EBC-1
Procedure, shortened: as §1

IA-LM = test system: IA-LM
Procedure, shortened: as §1

NCI-H1703 = test system: NCI-H1703
Procedure, shortened: as §1

A549 = test system: A549
Procedure, shortened: as §1

NCI-H1299 = test system: NCI-H1299
Procedure, shortened: as §1

Work on `C[C@@H]1CN(CC(=O)Nc2ccc3c(c2)Cc2cccc(-c4cc(=O)cc(N5CCOCC5)o4)c2S3)C[C@H](C)O1` + C[C@]1(O)C[C@@H](c2nc(-c3ccc4ccc(-c5ccccc5)nc4c3)c3c(N)nccn32)C1 [Linsitinib] (partner 1 µM) yielded a relative viability (Calu-6; first compound 0.04 µM) of 0.858, a relative viability (Calu-6; first compound 0.1265 µM) of 0.911 and a relative viability (Calu-6; first compound 0.4 µM) of 0.938. It also gave a relative viability (Calu-6; first compound 4 µM) of 0.673, a relative viability (UMC-11; first compound 0.04 µM) of 0.997 and a relative viability (UMC-11; first compound 0.1265 µM) of 0.993. For the same compound, the relative viability (UMC-11; first compound 0.4 µM) was 1.05, the relative viability (UMC-11; first compound 4 µM) was 0.857 and the relative viability (EBC-1; first compound 0.04 µM) was 1.01. For the same compound, the relative viability (EBC-1; first compound 0.1265 µM) was 0.867, the relative viability (EBC-1; first compound 0.4 µM) was 0.84 and the relative viability (EBC-1; first compound 4 µM) was 0.599. It also gave a relative viability (IA-LM; first compound 0.04 µM) of 0.713, a relative viability (IA-LM; first compound 0.1265 µM) of 0.549 and a relative viability (IA-LM; first compound 0.4 µM) of 0.528. For the same compound, the relative viability (IA-LM; first compound 4 µM) was 0.283, the relative viability (NCI-H1703; first compound 0.04 µM) was 0.853 and the relative viability (NCI-H1703; first compound 0.1265 µM) was 1.24. For the same compound, the relative viability (NCI-H1703; first compound 0.4 µM) was 0.549, the relative viability (NCI-H1703; first compound 4 µM) was 0.492 and the relative viability (A549; first compound 0.04 µM) was 0.471. It also gave a relative viability (A549; first compound 0.1265 µM) of 0.709, a relative viability (A549; first compound 0.4 µM) of 0.58 and a relative viability (A549; first compound 4 µM) of 0.488. For the same compound, the relative viability (NCI-H1299; first compound 0.04 µM) was 1.01, the relative viability (NCI-H1299; first compound 0.1265 µM) was 0.978 and the relative viability (NCI-H1299; first compound 0.4 µM) was 0.964. The relative viability (NCI-H1299; first compound 4 µM) was 0.822.

Work on `C[C@@H]1CN(CC(=O)Nc2ccc3c(c2)Cc2cccc(-c4cc(=O)cc(N5CCOCC5)o4)c2S3)C[C@H](C)O1` + Cc1nc(NC(=O)N2CCC[C@H]2C(N)=O)sc1-c1ccnc(C(C)(C)C(F)(F)F)c1 [Alpelisib] (partner 2 µM) yielded a relative viability (Calu-6; first compound 0.04 µM) of 1.03, a relative viability (Calu-6; first compound 0.1265 µM) of 1.03 and a relative viability (Calu-6; first compound 0.4 µM) of 0.97. For the same compound, the relative viability (Calu-6; first compound 4 µM) was 0.79, the relative viability (UMC-11; first compound 0.04 µM) was 1.1 and the relative viability (UMC-11; first compound 0.1265 µM) was 1.02. The relative viability (UMC-11; first compound 0.4 µM) was 1.1, the relative viability (UMC-11; first compound 4 µM) was 0.737 and the relative viability (EBC-1; first compound 0.04 µM) was 0.905. For the same compound, the relative viability (EBC-1; first compound 0.1265 µM) was 0.826, the relative viability (EBC-1; first compound 0.4 µM) was 0.386 and the relative viability (EBC-1; first compound 4 µM) was 0.506. It also gave a relative viability (IA-LM; first compound 0.04 µM) of 0.884, a relative viability (IA-LM; first compound 0.1265 µM) of 0.801 and a relative viability (IA-LM; first compound 0.4 µM) of 0.895. It also gave a relative viability (IA-LM; first compound 4 µM) of 0.387, a relative viability (NCI-H1703; first compound 0.04 µM) of 0.426 and a relative viability (NCI-H1703; first compound 0.1265 µM) of 0.33. For the same compound, the relative viability (NCI-H1703; first compound 0.4 µM) was 0.299, the relative viability (NCI-H1703; first compound 4 µM) was 0.277 and the relative viability (A549; first compound 0.04 µM) was 0.776. For the same compound, the relative viability (A549; first compound 0.1265 µM) was 0.753, the relative viability (A549; first compound 0.4 µM) was 0.826 and the relative viability (A549; first compound 4 µM) was 0.457. For the same compound, the relative viability (NCI-H1299; first compound 0.04 µM) was 1.02, the relative viability (NCI-H1299; first compound 0.1265 µM) was 1.05 and the relative viability (NCI-H1299; first compound 0.4 µM) was 1.05. For the same compound, the relative viability (NCI-H1299; first compound 4 µM) was 1.02.

Work on `CC(C)Oc1cc(Nc2nc(N[C@@H](C)c3ccc(F)cn3)ncc2Cl)n[nH]1` [AZ23] + CC1(C)CCC(c2ccc(Cl)cc2)=C(CN2CCN(c3ccc(C(=O)NS(=O)(=O)c4ccc(N[C@H](CCN5CCOCC5)CSc5ccccc5)c(S(=O)(=O)C(F)(F)F)c4)cc3)CC2)C1 [Navitoclax] (partner 0.5 µM) yielded a relative viability (Calu-6; first compound 0.03162 µM) of 0.952, a relative viability (Calu-6; first compound 0.3162 µM) of 0.739 and a relative viability (UMC-11; first compound 0.01 µM) of 0.271. For the same compound, the relative viability (UMC-11; first compound 0.03162 µM) was 0.334, the relative viability (UMC-11; first compound 0.3162 µM) was 0.304 and the relative viability (EBC-1; first compound 0.01 µM) was 0.37. For the same compound, the relative viability (EBC-1; first compound 0.03162 µM) was 0.451, the relative viability (EBC-1; first compound 0.3162 µM) was 0.371 and the relative viability (IA-LM; first compound 0.01 µM) was 0.837. For the same compound, the relative viability (IA-LM; first compound 0.03162 µM) was 0.97, the relative viability (IA-LM; first compound 0.3162 µM) was 0.848 and the relative viability (NCI-H1703; first compound 0.03162 µM) was 1.13. The relative viability (NCI-H1703; first compound 0.3162 µM) was 1.08, the relative viability (A549; first compound 0.01 µM) was 1.58 and the relative viability (A549; first compound 0.03162 µM) was 1.48. The relative viability (A549; first compound 0.3162 µM) was 1.2, the relative viability (NCI-H1299; first compound 0.01 µM) was 1.08 and the relative viability (NCI-H1299; first compound 0.03162 µM) was 1.04. It also gave a relative viability (NCI-H1299; first compound 0.3162 µM) of 1.08.

With `CC(C)Oc1cc(Nc2nc(N[C@@H](C)c3ccc(F)cn3)ncc2Cl)n[nH]1` [AZ23] + CC(C)C[C@H](NC(=O)[C@H](Cc1ccccc1)NC(=O)c1cnccn1)B(O)O [Bortezomib] (partner 0.002 µM) the relative viability (Calu-6; first compound 0.03162 µM) was 1.15, the relative viability (Calu-6; first compound 0.3162 µM) was 1.04 and the relative viability (UMC-11; first compound 0.01 µM) was 0.766. It also gave a relative viability (UMC-11; first compound 0.03162 µM) of 0.86, a relative viability (UMC-11; first compound 0.3162 µM) of 0.808 and a relative viability (EBC-1; first compound 0.01 µM) of 0.579. For the same compound, the relative viability (EBC-1; first compound 0.03162 µM) was 0.64, the relative viability (EBC-1; first compound 0.3162 µM) was 0.493 and the relative viability (IA-LM; first compound 0.01 µM) was 1. It also gave a relative viability (IA-LM; first compound 0.03162 µM) of 0.883, a relative viability (IA-LM; first compound 0.3162 µM) of 0.776 and a relative viability (NCI-H1703; first compound 0.03162 µM) of 0.367. It also gave a relative viability (NCI-H1703; first compound 0.3162 µM) of 0.363, a relative viability (NCI-H1299; first compound 0.01 µM) of 1.03 and a relative viability (NCI-H1299; first compound 0.03162 µM) of 1.02. The relative viability (NCI-H1299; first compound 0.3162 µM) was 1.1.
